Test results published in patent publication US20260097073A1, “PROCESS FOR THE PREPARATION OF TUNGSTEN (VI) SALT HYDRATES” (OXOLIFE, S.L., priority 2022, published 2026).

Experiments:
[1] = Stability test: loss on drying with time; type: physicochemical
Source text: The present inventors confirmed the stability of the hydrate resulting from the process of the invention determining the loss on drying with time.
To that end a well-mixed sample of the sodium tungstate hydrate resulting from Example 2, was subjected to the following protocol. Dry clean glass-stopper, shallow weighing bottle under the same conditions to be employed in the determination. Cool to room temperature in a desiccator and take the weight accurately (W1) g. Transfer to the bottle 1 g of the sample, cover it and accurately weigh the bottle and the contents (W2) g. Place the loaded bottle in the drying chamber (oven), remove the stopper and leave it also in the chamber. Dry the sample to the specified time and temperature to a constant mass (105° C.). After drying is completed, open the drying chamber, close the bottle promptly and allow it to cool to room temperature (where applicable) in a desiccator before weighing. Weigh the bottle and the contents (W3) g. Calculation:
The loss on drying should be not more than 15% (w/w).

[2] = Drying of the hydrate salt: loss of the water molecules (IR); type: physicochemical
Procedure: In this case, the precipitation was performed by adding 2.0 volumes of either MeOH, EtOH, acetone or IPA at room temperature. After overnight stirring at room temperature, the suspensions were filtered at room temperature, and the cakes were washed by percolation with 0.4 volumes of H2O/solvent (1:1), and with 0.4 volumes of the corresponding solvent. […]
This phenomenon was observed when recording the IR spectra of the synthesized and dried products, as none of them show the stretching and bending bands typical of water molecules (FIG. 2).

O.O.[Na+].[Na+].[O]=[W](=[O])([O-])[O-] [Na2WO4·2H2O, sodium tungstate dihydrate]
loss on drying with time ([1]; 6-month 40° C./75% HR): the loss was maintained | loss on drying with time ([1]; 18-month test at 25° C./60% HR): the loss was maintained | loss on drying ([1]; sodium tungstate hydrate resulting from Example 2, dried at 105° C. to constant mass, limit not more than 15% (w/w)): below 15% | stability of the waters of hydration on drying ([2]; drying processes at 100-110° C., IR spectra): dehydration processes of the tungsten salt were detected | fraction of the starting salt that lost the molecules of water ([2]; vacuum dried at a mild temperature of about 50° C.): ~94%
